Test results: patent US20090093374A1, “METHOD OF ARRAYING CELLS AT SINGLE-CELL LEVEL INSIDE MI[…] AND METHOD OF ANALYSING CELLS USING THE SAME, AND CELL ANALYSIS CHIP USED FOR CARRYING OUT THE SAME” (priority 2007, published 2009)

Tests used:
a-type yeast cell [1] = assay: GFP expression of yeast cells arrayed in shallow rectangular microwells, cell solution pre-treated with α-factor (Embodiment 1); assay type: cell-based, Saccharomyces cerevisiae; conditions: FIG. 14
Excerpt: (§1) For example, to obtain information with regard to a mating of the yeast cell, a pheromone, e.g., so-called α-factor, may be injected into the fluidic channel as the analysis reagent. If an a-type yeast cell is used as the cell, it is preferable that a pheromone of which a sequence is TRP-HIS-TRP-LEU-GLN-LEU-LYS-PRO-GLY-GLN-PRO-MET-TYR, is used as α-factor. In a subsequent operation, when analyzing responses, it is possible to obtain information with regard to whether or not a protein related to the mating is created in a corresponding cell, and the amount of the protein.
(§2) For instance, in the case where the yeast cell is treated with α-factor, it is possible to observe whether or not a protein related to the mating is created and the amount of the protein through the expression intensity of a green fluorescent protein (GFP) with a time. Moreover, in the case where the yeast cell is treated with KCl, it is possible to find out the creation amount of corresponding proteins through a red fluorescent protein (RFP), and also analyze the response of the corresponding yeast cell upon the external stress.
A mixed solution in which a-type yeast cell solution using yeast extract peptone dextrose (YPD) medium had been pre-treated with α-factor, e.g., pheromone having a sequence of TRP-HIS-TRP-LEU-GLN-LEU-LYS-PRO-GLY-GLN-PRO-MET-TYR, was introduced into a fluidic channel through an inlet. The introduced mixed solution filled the fluidic channel through a capillary flow.
After that, the inlet was sealed with a tape so that the mixed solution was evaporated through an outlet. Accordingly, a receding meniscus was generated, allowing the cells to be arrayed in the well structures at a single-cell level. At this time, it took about 10 minutes for the cells to be arrayed while the meniscus was receding.
FIG. 14 is a micrograph showing GFP expression of a yeast cell with respect to α-factor according as a time elapses using the fluidic channel. […]

a-type yeast cell [2] = assay: GFP expression of yeast cells arrayed in deep rectangular microwells, α-factor introduced after arraying and cleaning (Embodiment 2); assay type: cell-based, Saccharomyces cerevisiae; conditions: FIG. 15
Excerpt: as §1, §2
An a-type yeast cell solution using YPD medium was introduced into a fluidic channel. The introduced cell solution was filled into the fluidic channel through a capillary flow. After that, the inlet was sealed with a tape so that the cell solution was evaporated through an outlet. Accordingly, a receding meniscus was generated, thereby allowing the cells to be arrayed in the well structures at a single-cell level.
Afterwards, a cleaning solution containing amino acid, nitrogen, glucose, etc was introduced through the capillary flow caused by a surface tension, residual cells remaining at a side of the inlet were cleaned. At this time, a tissue paper was placed in the outlet to absorb and remove the residual cells and the cleaning solution.
After the residual cells are completely cleaned, […] was also introduced into the microfluidic channel by the capillary flow caused by the surface tension. […]

[3] = 30 minutes after α-factor treatment
[4] = 60 minutes after α-factor treatment
[5] = 120 minutes after α-factor treatment (versus 60 minutes)

TRP-HIS-TRP-LEU-GLN-LEU-LYS-PRO-GLY-GLN-PRO-MET-TYR (WHWLQLKPGQPMY; printed: TRP-HIS-TRP-LEU-GLN-LEU-LYS-PRO-GLY-GLN-PRO-MET-TYR) [α-factor, pheromone used as analysis reagent for mating response of a-type yeast cell]
GFP expression (a-type yeast cell [1]; [3]): cannot be observed yet
GFP expression (a-type yeast cell [1]; [4]): observed to be bright
GFP expression intensity (a-type yeast cell [1]; [5]): does not vary
GFP expression (a-type yeast cell [2]; [3]): cannot be observed yet
GFP expression (a-type yeast cell [2]; [4]): observed to be bright
GFP expression intensity (a-type yeast cell [2]; [5]): does not vary
